pIC50: −log10 of the molar value.
Assays:
human Gal-3 (hGal-3) = human Gal-3 (hGal-3) (Homo sapiens (Human), UniProt P17931); assay: Competitive binding assay: binding of biotinylated hGal-3 to microplate-adsorbed asialofetuin (ASF); details: Activity on hGal-3; mean values of several measurements
Protocol: (§1) Evaluation of Compound Inhibitory Activity (IC50)
(§2) The inhibitory activity of compounds is determined in competitive binding assays. This spectrophotometric assay measures the binding of biotinylated human Gal-3 (hGal-3) or human Gal-1 (hGal-1), respectively, to a microplate-adsorbed glycoprotein, asialofetuin (ASF) (Proc Natl Acad Sci USA. 2013 Mar. 26; 110(13):5052-7.). Alternatively, and preferably, a human Gal-1 version in which all six cysteines are substituted by serines may be used.
(§3) Briefly, compounds are serially diluted in DMSO (working dilutions). ASF-coated 384 well plates are supplemented with 22.8 μL/well of biotinylated hGal-3 or hGal-1 in assay buffer (i.e. 300-1000 ng/mL biotinylated hGal-3 or hGal-1) to which 1.2 μL of compound working dilutions are added and mixed.
(§4) Plates are incubated for 3 hours at 4° C., then washed with cold assay buffer (3×50 uL), incubated for 1 hour with 25 μL/well of a streptavidin-peroxidase solution (diluted in assay buffer to 80 ng/mL) at 4° C., followed by further washing steps with assay buffer (3×50 uL). Finally, 25 μL/well of ABTS substrate is added.
(§5) The calculated IC50 values may fluctuate depending on the daily assay performance. Fluctuations of this kind are known to those skilled in the art. IC50 values from several measurements are given as mean values.

human Gal-1 (hGal-1) = assay: Competitive binding assay: binding of biotinylated hGal-1 to microplate-adsorbed asialofetuin (ASF); details: Activities on hGal-1; mean values of several measurements
Protocol: as §1, §2, §3, §4, §5

human Gal-3 (hGal-3), sequence (P17931 whole entry): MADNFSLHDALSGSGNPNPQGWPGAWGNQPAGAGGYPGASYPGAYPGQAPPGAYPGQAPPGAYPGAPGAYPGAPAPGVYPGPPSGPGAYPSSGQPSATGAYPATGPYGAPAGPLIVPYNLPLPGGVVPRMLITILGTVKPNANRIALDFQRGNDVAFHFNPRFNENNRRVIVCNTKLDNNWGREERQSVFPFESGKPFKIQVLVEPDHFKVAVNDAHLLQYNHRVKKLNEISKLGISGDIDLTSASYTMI
human Gal-1 (hGal-1), sequence (P09382 2-135 limits assumed): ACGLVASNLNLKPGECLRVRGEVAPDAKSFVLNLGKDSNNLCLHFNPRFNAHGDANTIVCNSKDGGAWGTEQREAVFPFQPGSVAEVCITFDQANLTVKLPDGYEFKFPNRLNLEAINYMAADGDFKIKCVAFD

Compound | pIC50 (human Gal-3 (hGal-3)) | pIC50 (human Gal-1 (hGal-1))
CO[C@@H]1[C@@H](n2cc(-c3cc(F)c(F)c(F)c3)nn2)[C@@H](O)[C@@H](CO)O[C@@H]1Cc1cc(C2CCNC2)on1 (mixture of isomers) [Example 2.08, (2R,3R,4S,5R,6R)-2-(hydroxymethyl)-5-methoxy-6-((5-((RS)-pyrrolidin-3-yl)isoxazol-3-yl)methyl)-4-(4-(3,4,5-trifluorophenyl)-1H-1,2,3-triazol-1-yl)tetrahydro-2H-pyran-3-ol] | 6.19 | 5.35
CCO[C@@H]1[C@@H](n2cc(-c3cc(F)c(F)c(F)c3)nn2)[C@@H](O)[C@@H](CO)O[C@@H]1CC1CC(C2CCN(C(=O)OC(C)(C)C)CC2)=NO1 (mixture of isomers) [Example 2.31, tert-butyl 4-((RS)-5-(((2R,3R,4S,5R,6R)-3-ethoxy-5-hydroxy-6-(hydroxymethyl)-4-(4-(3,4,5-trifluorophenyl)-1H-1,2,3-triazol-1-yl)tetrahydro-2H-pyran-2-yl)methyl)-4,5-dihydroisoxazol-3-yl)piperidine-1-carboxylate] | 6.52 | 5.89
CC(C)(C)OC(=O)N1CCC(C2=NOC(C[C@H]3O[C@H](CO)[C@H](O)[C@H](n4cc(-c5cc(F)c(F)c(F)c5)nn4)[C@H]3OCC(F)F)C2)CC1 (mixture of isomers) [Example 2.32, tert-butyl 4-((RS)-5-(((2R,3R,4S,5R,6R)-3-(2,2-difluoroethoxy)-5-hydroxy-6-(hydroxymethyl)-4-(4-(3,4,5-trifluorophenyl)-1H-1,2,3-triazol-1-yl)tetrahydro-2H-pyran-2-yl)methyl)-4,5-dihydroisoxazol-3-yl)piperidine-1-carboxylate] | 6.46 | 5.53
COC(=O)CO[C@@H]1[C@@H](n2cc(-c3cc(F)c(F)c(F)c3)nn2)[C@@H](O)[C@@H](CO)O[C@@H]1CC1CC(C2CCN(C(=O)OC(C)(C)C)CC2)=NO1 (mixture of isomers) [Example 2.33, tert-butyl 4-((RS)-5-(((2R,3R,4S,5R,6R)-5-hydroxy-6-(hydroxymethyl)-3-(2-methoxy-2-oxoethoxy)-4-(4-(3,4,5-trifluorophenyl)-1H-1,2,3-triazol-1-yl)tetrahydro-2H-pyran-2-yl)methyl)-4,5-dihydroisoxazol-3-yl)piperidine-1-carboxylate] | 6.51 | 5.61
CC(C)(C)OC(=O)N1CCC(C2=NOC(C[C@H]3O[C@H](CO)[C@H](O)[C@H](n4cc(-c5cc(F)c(F)c(F)c5)nn4)[C@H]3OCC(=O)O)C2)CC1 (mixture of isomers) [Example 2.34, 2-(((2R,3R,4S,5R,6R)-2-(((RS)-3-(1-(tert-butoxycarbonyl)piperidin-4-yl)-4,5-dihydroisoxazol-5-yl)methyl)-5-hydroxy-6-(hydroxymethyl)-4-(4-(3,4,5-trifluorophenyl)-1H-1,2,3-triazol-1-yl)tetrahydro-2H-pyran-3-yl)oxy)acetic acid] | 7.17 | 5.92

Further compounds by rising pIC50 (human Gal-3 (hGal-3)), results first:

pIC50 (human Gal-3 (hGal-3)) | pIC50 (human Gal-1 (hGal-1)) | Compound
7.15 |  | CO[C@@H]1[C@@H](n2cc(-c3cc(F)c(F)c(F)c3)nn2)[C@@H](O)[C@@H](CO)O[C@@H]1Cc1cc(C2CCN(C(=O)CC(F)(F)F)CC2)on1 [Example 3.51, 3,3,3-trifluoro-1-(4-(3-(((2R,3R,4S,5R,6R)-5-hydroxy-6-(hydroxymethyl)-3-methoxy-4-(4-(3,4,5-trifluorophenyl)-1H-1,2,3-triazol-1-yl)tetrahydro-2H-pyran-2-yl)methyl)isoxazol-5-yl)piperidin-1-yl)propan-1-one]
7.34 | 6.02 | 1-(4-(3-(((2R,3R,4R,5R,6R)-3,5-dihydroxy-6-(hydroxymethyl)-4-(4-(3,4,5-trifluorophenyl)-1H-1,2,3-triazol-1-yl)tetrahydro-2H-pyran-2-yl)methyl)isoxazol-5-yl)piperidin-1-yl)ethan-1-one [Example 3.17]
